Results as given in patent US10981932B2, “Macrocyclic indole derivatives” (Bayer Aktiengesellschaft, priority 2016, dated 2021).
“And” between values parts separate entries of the source, which are not always exact repeats. Equal entries are not always repeated. Structures can show the parent of a compound that is named as a salt. Where two headings read alike, the source gives them in different places.

Columns and labels:
[1] = tested on: A2780; test: Anti-proliferative effect (CellTiter-Glo, 72 h), A2780; assay type: cell-based; conditions: A2780 cells, median, read-out: IC50 antiproliferation assay A2780 [M] (median)
How it was run: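 Viable cells quantified with CellTiter-Glo after 72 h at 37 °C; rim wells excluded; day 0 plate as baseline.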

[2] = tested on: SUDHL5; test: Induction of cytotoxicity (CellTiter-Glo, 5 h), SUDHL5
[3] = target: T1, BCL-XL (Homo sapiens, UniProt Q07817); test: Protein-protein interaction assay BCL-XL/Bad BH3 peptide (BCL-XL assay), TR-FRET; assay type: binding; conditions: His-BCL-XL / Bad BH3-derived peptide
T1 construct: BCL-XL (amino acids 1-212, C-terminal fused to a hexahistidine (6×His) tag); purchased BPS Bioscience (San Diego, Calif., USA); host or cells: E. coli
Method: Protein-Protein Interaction Assay: BCL-XL/Bad BH3 Peptide (BCL-XL Assay)
The dose-dependent inhibition by the compounds described in this invention of the interaction between […] and the BH3 domain of Bad (both human) was determined using a steady state binding competition assay with time-resolved fluorescence energy transfer (TR-FRET) readout. For that purpose BCL-2 (amino acids 1-211, C-terminal fused to a hexahistidine (6×His) tag (SEQ ID NO: 3) and a synthetic Bad BH3-derived peptide of sequence Biotin-PEG2-PEG2-NLWAAQRYGRELRR-NIe-SDEFVDSFKK-amide (SEQ ID NO: 2) served as protein receptor and tracer ligand respectively. The recombinant BCL-2 protein (expressed in E. coli) was purchased from BPS Bioscience (San Diego, Calif., USA). The Bad BH3-derived peptide can be obtained from e.g. Biosyntan (Berlin, Germany).
In the assay 11 different concentrations of each compound (0.1 nM, 0.33 nM, 1.1 nM, 3.8 nM, 13 nM, 44 nM, 0.15 μM, 0.51 μM, 1.7 μM, 5.9 μM and 20 μM) were typically measured as duplicates in the same microtiter plate. For that, 100-fold concentrated DMSO solutions were prepared by serial dilutions (1:3.4) of a 2 mM stock solution in a clear, 384-well microtiter plate (Greiner Bio-One, Frickenhausen, Germany). From there, 50 nl were transferred in a dark test plate (Greiner Bio-One. Frickenhausen, Germany). The assay was initiated by addition of 2 μl of a 2,5-fold concentrated Hs-BCL-XL solution (usually for a 1 nM end concentration in 5 μl reaction volume) in aqueous assay buffer [50 mM Tris/HCl pH 7, 100 mM sodium chloride (NaCl), 50 mM potassium fluoride (KF), 0.005% Tween-20, 2 mM DTT, 0.1% bovine gamma globulin (BGG)] to the compounds in the assay plate. This was followed by a 10-minute incubation step at 22° C. for pre-equilibration of the putative complex between His-BCL-XL and the compounds.
The mixture was incubated in the dark for one hour at 22° C. and then overnight at 4° C. The formation of BCL-XL/Bad complexes was determined by measuring the resonance energy transfer of the anti-His- Eu-cryptate antibody to the streptavidin-XL665 present in the reaction. For that purpose, the fluorescence emission at 620 nm and 665 nm after excitation at 330-350 nm was measured in a TR-FRET measuring instrument, for instance a Rubystar or a Pherastar (both from BMG Lab Technologies, Offenburg, Germany) or a Viewlux (Perkin-Elmer). The ratio of the emission at 665 nm and at 622 nm was used as indicator of the amount of BCL-XL/Bad complexes present.
The resulting data (ratio) were normalized, taking 0% inhibition as the mean value of control measurements (usually 32 data points) where all reagents were included. In this case 50 nl DMSO were used instead of compounds. A 100% inhibition corresponded to the mean value of control measurements (usually 32 data points) where all reagents except BCL-XL were included. IC50 values were determined by regression analysis based on a 4 parameter equation (minimum, maximum, IC50, Hill; Y=Max+(Min−Max)/(1+(X/IC50)^Hill) using the Screener Software (Genedata).

[4] = read-out: Cytotox SUDHL5 [M] (median), SUDHL5 cells, cytotoxicity induction, CellTiter-Glo, 5 h incubation, median

T1 sequence (Q07817 1-212): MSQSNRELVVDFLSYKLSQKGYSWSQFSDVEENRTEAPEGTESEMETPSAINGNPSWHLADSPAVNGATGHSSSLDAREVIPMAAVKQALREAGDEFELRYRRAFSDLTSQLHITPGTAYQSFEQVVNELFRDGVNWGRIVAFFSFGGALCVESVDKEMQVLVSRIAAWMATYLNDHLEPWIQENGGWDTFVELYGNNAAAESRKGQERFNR

| Compound | IC50 ([1]; Homo sapiens, A2780, 72 h) [M] | IC50 [3] [µM] | IC50 [1] | IC50 [2, 4] [M] | IC50 ([2]; Homo sapiens, SU-DHL-5, 5 h, read-out: Cytotox SUDHL5 [M] (median), SUDHL5 cells, cytotoxicity induction, CellTiter-Glo, 5 h incubation, median) |
| --- | --- | --- | --- | --- | --- |
| CN1CCCn2c(C(=O)O)c(CCCOc3cccc4ccccc34)c3cccc(c32)-c2c(COc3ccc(N4CCN(S(C)(=O)=O)CC4)cc3)nn(C)c2C1 (single isomer, unassigned; enantiomer 1) [Example 1-46, (+)-7,9-dimethyl-11-({4-[4-(methylsulfonyl)piperazin-1-yl]phenoxy}methyl)-1-[3-(naphthalen-1-yloxy)propyl]-4,5,6,7,8,9-hexahydropyrazolo[3′,4′:7,8][1,5]diazecino[9,10,1-hi]indole-2-carboxylic Acid (Enantiomer 1)] | 7.08e-06 | > 20 | – | 1.53e-06 | – |
| Cc1nn(C)c2c1-c1cccc3c(CCCOc4cccc5cc(F)ccc45)c(C(=O)O)n(c13)CCCCOC2 (single isomer, unassigned; enantiomer 1) [Example 019, 7-{3-[(6-fluoronaphthalen-1-yl)oxy]propyl}-1,3-dimethyl-1,10,11,12,13,15-hexahydropyrazolo[4′,3′:9,10][1,6]oxazacycloundecino[8,7,6-hi]indole-8-carboxylic Acid-N-ethylethanamine Salt (Enantiomer 1)] | – | > 20 | > 3.3e-05 M | 1.68e-06 | – |
| Cc1nn(C)c2c1-c1cccc3c(CCCOc4cccc5cc(Cl)ccc45)c(C(=O)O)n(c13)CCCCOC2 (single isomer, unassigned; enantiomer 1) [Example 041, 7-{3-[(6-chloronaphthalen-1-yl)oxy]propyl}-1,3-dimethyl-1,10,11,12,13,15-hexahydropyrazolo[4′,3′:9,10][1,6]oxazacycloundecino[8,7,6-hi]indole-8-carboxylic acid-N-ethylethanamine Salt (Enantiomer 1)] | 1.81e-05 | > 20 | – | 1.02e-05 | – |
| Cc1nn(C)c2c1-c1cccc3c(CCCOc4cccc5cc(F)ccc45)c(C(=O)O)n(c13)CCCOC2 (single isomer, unassigned; enantiomer 1) [Example 047, 1-{3-[(6-fluoronaphthalen-1-yl)oxy]propyl}-9,11-dimethyl-5,6,8,9-tetrahydro-4H-pyrazolo[4′,3′:8,9][1,5]oxazecino[7,6,5-hi]indole-2-carboxylic acid-N-ethylethanamine Salt (Enantiomer 1)] | – | > 20 | 2.69e-05 M | 3.22e-06 | – |
| COCCn1nc2c(c1CN1CCOCC1)-c1cccc3c(CCCOc4cccc5ccccc45)c(C(=O)O)n(c13)CCCN(C)C2 (single isomer, unassigned; enantiomer 1) [Example 057, 10-(2-methoxyethyl)-7-methyl-11-(morpholin-4-ylmethyl)-1-[3-(naphthalen-1-yloxy)propyl]-4,5,6,7,8,10-hexahydropyrazolo[3′,4′:7,8][1,5]diazecino[9,10,1-hi]indole-2-carboxylic Acid (Enantiomer 1)] | 3.01e-05 | > 20 | – | – | 2.5e-05 |
| Cc1c2c(nn1CCN1CCOCC1)CN(C)CCCn1c(C(=O)O)c(CCCOc3cccc4ccccc34)c3cccc-2c31 (single isomer, unassigned; enantiomer 1) [Example 060, 7,11-dimethyl-10-[2-(morpholin-4-yl)ethyl]-1-[3-(naphthalen-1-yloxy)propyl]-4,5,6,7,8,10-hexahydropyrazolo[3′,4′:7,8][1,5]diazecino[9,10,1-hi]indole-2-carboxylic Acid (Enantiomer 1)] | 2.21e-05 | > 20 | – | 4.3e-06 | – |
| Cc1ccc2c(CCCOc3cccc4ccccc34)c(C(=O)O)n3c2c1-c1c(nn(C)c1C)CN(C)CCC3 (single isomer, unassigned; enantiomer 1) [Example 073, 7,10,11,12-tetramethyl-1-[3-(naphthalen-1-yloxy)propyl]-4,5,6,7,8,10-hexahydropyrazolo[3′,4′:7,8][1,5]diazecino[9,10,1-hi]indole-2-carboxylic Acid (Enantiomer 1)] | 1.4e-05 | > 20 | – | 1.79e-06 | – |
| CCn1nc2c(c1C1CC1)-c1cccc3c(CCCOc4cccc5ccccc45)c(C(=O)O)n(c13)CCCCOC2 (single isomer, unassigned; enantiomer 1) [Example 082, 3-cyclopropyl-2-ethyl-7-[3-(naphthalen-1-yloxy)propyl]-2,10,11,12,13,15-hexahydropyrazolo[4′,3′:9,10][1,6]oxazacycloundecino[8,7,6-hi]indole-8-carboxylic acid-N-ethylethanamine Salt (Enantiomer 1)] | 1.68e-05 | > 20 | – | 8.19e-06 | – |

Now from value to molecule, other results behind:

| IC50 ([1]; Homo sapiens, A2780, 72 h) [M] | IC50 [3] [µM] | IC50 [1] | Compound | IC50 [2, 4] [M] | IC50 ([2]; Homo sapiens, SU-DHL-5, 5 h, read-out: Cytotox SUDHL5 [M] (median), SUDHL5 cells, cytotoxicity induction, CellTiter-Glo, 5 h incubation, median) |
| --- | --- | --- | --- | --- | --- |
| 2.15e-05 | > 20 | – | COCCn1nc2c(c1C1CC1)-c1cccc3c(CCCOc4cccc5ccccc45)c(C(=O)O)n(c13)CCCCOC2 (single isomer, unassigned; enantiomer 1) [Example 085, 3-Cyclopropyl-2-(2-methoxyethyl)-7-[3-(naphthalen-1-yloxy)propyl]-2,10,11,12,13,15-hexahydropyrazolo[4′,3′:9,10][1,6]oxazacycloundecino[8,7,6-hi]indole-8-carboxylic acid-N-ethylethanamine Salt (Enantiomer 1)] | 3.91e-06 | – |
| 2.71e-05 | > 20 | – | Cc1c2c(nn1C1CC1)COCCCCn1c(C(=O)O)c(CCCOc3cccc4ccccc34)c3cccc-2c31 (single isomer, unassigned; enantiomer 1) [Example 093, 2-cyclopropyl-3-methyl-7-[3-(naphthalen-1-yloxy)propyl]-2,10,11,12,13,15-hexahydropyrazolo[4′,3′:9,10][1,6]oxazacycloundecino[8,7,6-hi]indole-8-carboxylic acid-N-ethylethanamine Salt (Enantiomer 1)] | 2.1e-06 | – |
| – | > 20 | > 3.3e-05 M and 2.08e-05 M | COCCn1nc2c(c1C)-c1cccc3c(CCCOc4cccc5ccccc45)c(C(=O)O)n(c13)CCCCOC2 (single isomer, unassigned; enantiomer 1) [Example 107, 2-(2-methoxyethyl)-3-methyl-7-[3-(naphthalen-1-yloxy)propyl]-2,10,11,12,13,15-hexahydropyrazolo[4′,3′:9,10][1,6]oxazacycloundecino[8,7,6-hi]indole-8-carboxylic acid-N-ethylethanamine Salt (Enantiomer 1)] | 1.73e-06 | – |
| 1.36e-05 | > 20 | – | CCc1c2c(nn1C)CN(C)CCCn1c(C(=O)O)c(CCCOc3cccc4ccccc34)c3ccc(C)c-2c31 (single isomer, unassigned; enantiomer 1) [Example 145, 11-Ethyl-7,10,12-trimethyl-1-[3-(1-naphthyloxy)propyl]-4,5,6,7,8,10-hexahydropyrazolo[3′,4′:7,8][1,5]diazecino[9,10,1-hi]indole-2-carboxylic acid-N-ethylethanamine Salt (Enantiomer 1)] | 1.4e-06 | – |
| 2e-05 | > 20 | – | CCc1c2c(nn1C)COCCCCn1c(C(=O)O)c(CCCOc3cccc4ccccc34)c3cccc-2c31 (single isomer, unassigned; enantiomer 1) [Example 148, 3-Ethyl-2-methyl-7-[3-(1-naphthyloxy)propyl]-2,10,11,12,13,15-hexahydropyrazolo[4′,3′:9,10][1,6]oxazacycloundecino[8,7,6-hi]indole-8-carboxylic acid-N-ethylethanamine Salt (Enantiomer 1)] | 9.08e-07 | – |
